# Key:
# HT-1080 cells [1] = assay: LOC library screening and confirmation: inhibition of erastin-induced ferroptosis; assay type: cell-based, human; conditions: LOC library screening and confirmation studies, read-out: EC50, inhibitor of erastin-induced ferroptosis
# Procedure: The LOC library was screened over the course of several days. 384-well glass bottom assay plates (Corning) were seeded with 1,000 HT-1080 cells/well the day before the experiment. The day of the experiment, LOC mother plates were thawed at room temperature for 1 hour and spun at 1000 rpm for 1 minute prior to use. Using a BioMek liquid handing robot, 2 μL of compound solution from each LOC library mother plate was transferred to a 384 deep well “daughter” plate (Grenier) containing 148 μL of cell culture media. The cell culture media in each assay plate was then removed by flicking and, using a BioMek FX, replaced with 36 μL of growth media containing erastin (5 μM final). To this was added 4 μL of the drug solution from the daughter plate, for a final screening concentration of 5.3 μg/mL for each LOC library compound. 4 wells containing DMSO alone (no erastin), 4 wells containing 100 μM DFO alone (no erastin), 4 wells containing erastin plus DMSO, and 4 wells containing erastin plus 100 μM DFO (positive control) were included as controls on each plate. Each drug daughter plate was aliquoted separately to duplicate assay plates. Plates were then spun briefly (1000 rpm, 5 seconds) and returned to the 37° C. tissue culture incubator. 24 hours later, cell viability was assessed by Alamar Blue as described above.
# Candidate hits from the LOC library screen were identified. […]
# HT-1080 cells [2] = assay: Modulatory profile of lethal small molecules (effect of Fer-1 on lethality of various compounds); assay type: cell-based, human; conditions: resynthesized Fer-1 0.5 μM
# Procedure: The modulatory effect (Me) for drug-drug interactions was computed as follows. First, plate-based background correction was performed using Alamar Blue values from empty (cell-free) wells included on each plate. Next, within each experiment, 100% viability is determined as the average Alamar Blue score for cells treated with modulator=DMSO and lethal=DMSO, and all Alamar Blue values were scaled from 0 to 1 with the DMSO×DMSO condition=1. The individual effects of each modulator and lethal (e.g. in the presence of DMSO) at all tested doses were then ascertained. […] Next, BExp was compared to the actual observed viability. For each informative drug-drug interaction (i.e. modulator=“DFO”, modulator concentration=100 μM, lethal=Erastin) the modulatory effect (Me) was equivalent to the maximum observed deviation, positive or negative, from BExp. By default, Me in DMSO-treated cells is equal to 0. This formula was empirically determined to provide a useful measure of modulation that is robust to differences in the shapes of individual dose-response curves for different inhibitors and lethal molecules. Me values for each inhibitor-lethal drug combination were hierarchically clustered and plotted as a heatmap using the heatmaps.2 function of the gplots library in R. […]
# [3] = tested on: ROS production in HT-1080 cells; assay: Analysis of reactive oxygen species production by flow cytometry (H2DCFDA, C11-BODIPY, MitoSOX); assay type: cell-based, human; conditions: erastin 10 μM; HT-1080 cells; H2DCFDA, C11-BODIPY
# Procedure: The day before the experiment, 200,000 cells/well were seeded in 6-well dishes (Corning Inc., Corning, N.Y.). […] Data was collected from the FL1 (H2DCFDA, C11-BODIPY) or FL2 channel (MitoSOX). A minimum of 10,000 cells were analyzed per condition.
# [4] = tested on: rat organotypic hippocampal slice culture (OHSC); assay: Glutamate-induced excitotoxic cell death in organotypic hippocampal slice cultures (PI uptake); assay type: cell-based; conditions: 5 mM L-glutamate 3 hours; 24 hours after; DG, CA1, CA3; Fer-1 2 μM, CPX 5 μM, MK-801 10 μM
# Procedure: OHSCs were cultured as previously described (Morrison et al., 2002) with approval from Columbia University's Institutional Animal Care and Use Committee (IACUC). Briefly, Sprague Dawley rat pups (P8-P10) were rapidly decapitated, and the hippocampus placed in ice-cold Gey's balanced salt solution (Sigma). 400 μm thick sections were cut using a Mcllwain tissue chopper and immediately plated on Millicell cell culture inserts (Millipore, Billerica, Mass.) in Neurobasal (Invitrogen) media supplemented with B27 (1×, Invitrogen), GlutaMAX (1 mM, Invitrogen), and D-glucose (4.5 mg/mL, Sigma) at 37° C. and 5% CO2. After 2 days in vitro (DIV), the media was changed to medium containing serum comprised of 50% DMEM (Sigma), 25% heat-inactivated horse serum (Sigma), 25% Hank's balanced salt solution (Sigma), GlutaMAX (1 mM, Invitrogen), and D-glucose (4.5 mg/mL, Sigma). Medium was changed every 2-3 days.
# After 10-14 DIV, OBSCs were exposed to an excitotoxic injury consisting of a 3 hour exposure to 5 mM L-glutamate in SFM (Morrison et al., 2002). Only healthy OHSCs defined as those with less than 5% cell death in all regions of the hippocampus (DG, CA3, CA1) pre-injury were used for experiments. After the 3 hour exposure, the cultures were placed in fresh serum free media (SFM) containing 75% DMEM, 25% Hank's balanced salt solution, GlutaMAX (1 mM), D-glucose (4.5 mg/mL) until cell death was quantified at 24 hours. If drugs were added, they were added at the same time as glutamate.
# Quantification of cell death has been described previously (Cater et al., 2007; Morrison et al., 2002). Brightfield images of the hippocampal cultures were taken before injury for identification of regions of interest (ROI) including the dentate gyrus (DG), CA3 and CA1. Propidium iodide (PI, Invitrogen) was used as a fluorescent signal for cell death, and images were taken before the induction of injury and 24 hours following injury. […] Percentage cell death was expressed as the number of pixels in the ROI above a threshold in the PI fluorescent image divided by the total number of pixels in the ROI.
structure (smiles),measurement,setting,value
"CCOC(=O)c1ccc(NC2CCCCC2)c(N)c1 [Fer-1, ferrostatin-1]",EC50,HT-1080 cells [1],0.06 µM
same,specificity of death inhibition against various lethal compounds,HT-1080 cells [2],"specifically inhibited RSL-induced death, but not cell death induced by other oxidative lethal compounds and apoptosis-inducing agents"
same,effect on erastin-induced ROS accumulation,[3],prevent erastin-induced accumulation of cytosolic and lipid ROS
same,glutamate-induced cell death (PI uptake),[4],attenuated significantly and to an almost identical extent

# From patent US9580398B2, “Compounds, compositions, and methods for modulating ferroptosis and treating excitotoxic disorders” (The Trustees of Columbia University in the City of New York, priority 2012, dated 2017)
